Experiments:
[1] = volume of water for 1 g; cited from earlier work
[2] = Franz skin diffusion cell permeation (percutaneous absorption) under ambient, natural or pulsed incoherent LED light; settings: for Permeation Dark: Dark control, ambient light absent; for Ctrl / Ctrl-TiO2: Table 8 (405 nm series); for Ctrl: ambient light only; for Ctrl-TiO2 / Effect of 2% (w/w) TiO2 on permeation: ambient light; for Ctrl-TiO2: 2% TiO2; for Permeation Ctrl: ambient cool fluorescent light only, 260-750 nm, 120 cps; for Permeation Ctrl-TiO2: ambient fluorescent light, sample with 2% (w/w) rutile TiO2; for Effect of 2% (w/w) TiO2 on permeation: FIG. 4; for Permeation 350: 350 nm LED; for Permeation 350 / Permeation 405: pulse rate 24 cps, 75% duty cycle; for Permeation 1.7 cps / Permeation 9.7 cps: 350 nm; for Permeation 405: 405 nm LED

SMILES	Water Solubility (1 g) [1]	Permeation Dark [2] [μg/0.64 cm^2/25 hrs]	Ctrl [2]	Ctrl-TiO2 [2]	Permeation Ctrl [2] [μg/0.64 cm^2/25 hrs]	Permeation Ctrl-TiO2 [2] [μg/0.64 cm^2/25 hrs]	Effect of 2% (w/w) TiO2 on permeation [2]	Permeation 350 [2] [μg/0.64 cm^2/25 hrs]	Permeation 1.7 cps ([2]; 1.7 cps) [μg/0.64 cm^2/25 hrs]	Permeation 9.7 cps ([2]; 9.7 cps) [μg/0.64 cm^2/25 hrs]	Permeation 405 [2] [μg/0.64 cm^2/25 hrs]	Ctrl-TiO2/1.7 ([2]; Table 8, 405 nm series, 2% TiO2, 1.7 cps)	Ctrl-TiO2/9.7 ([2]; Table 8, 405 nm series, 2% TiO2, 9.7 cps)	Ctrl-TiO2/24 ([2]; Table 8, 405 nm series, 2% TiO2, 24 cps)	405/1.7 ([2]; Table 8, 405 nm, 1.7 cps)	405/9.7 ([2]; Table 8, 405 nm, 9.7 cps)	405/24 ([2]; Table 8, 405 nm, 24 cps)
O=C(O)c1cccnc1 [Compound 6, Nicotinic acid]	60 mL	976.30	0.00	1371.00	0.00	1371.00	significant effect	–	–	–	–	–	–	–	–	–	–
CC(=O)[C@H]1CC[C@H]2[C@@H]3CCC4=CC(=O)CC[C@]4(C)[C@H]3CC[C@]12C [Compound 18, Progesterone]	Insoluble	0.00	–	–	0.00	0.00	–	149.91	2.58	2.80	6.19	–	–	–	–	–	–
NC(=O)c1cccnc1 [Compound 10, Nicotinamide]	1 mL	543.70	42.72	851.83	42.72	851.80	significant effect	–	–	–	–	668.31	1387.33	0.00	26.22	32.69	0.00
C[C@]12CCC(=O)C=C1CC[C@@H]1[C@@H]2CC[C@@]2(C)[C@H]1CC[C@]2(C)O [Compound 17, Methyl Testosterone]	Insoluble	0.00	–	–	0.00	0.00	–	153.25	12.84	29.57	25.37	–	–	–	–	–	–
